Activity calls are given as the source filed them.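 How the source made its calls: active means compounds giving half or more protection of infected cells from virus-caused growth loss, again on retest; inactive means the rest.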
Tested on: CEM cells HIV-1 protection, formazan growth assay
Assay: NCI AIDS Antiviral Assay
Settings: for IC50: measured here: growth of uninfected CEM cells
Method in brief: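 Protection of CEM cells against HIV-1 was scored from cell growth (soluble formazan) across five concentrations, with parallel uninfected cells. Lack of protection may reflect toxicity.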

Compound: Cc1cc(=NCCCN(C)C)c2ccc3c(ccc4c(=NCCCN(C)C)cc(C)n(O)c43)c2n1O
- EC50: > 200 µM
- IC50: 10.2 µM

Compound: CC12CC/C(=N/NC(N)=O)C3C1CCCC32
- outcome: inactive

Compound: COc1ccc(COCC[C@H](C)OC2OC(CO[Si](C)(C)C(C)(C)C)C(OC(=O)CCCN=[N+]=[N-])C(OC(=O)CCCN=[N+]=[N-])C2OC(=O)CCCN=[N+]=[N-])cc1 (stereo partly drawn)
- EC50: > 200 µM
- IC50: 26.3 µM

Compound: CCOc1ccc(N)c(S)c1
- EC50: > 200 µM
- IC50: 26.9 µM

Compound: O/N=C/[C@H]1COC2(CCCCC2)O1
- EC50: > 200 µM
- IC50: > 200 µM

Compound: c1ccc2c(c1)cnn1cnnc21
- EC50: > 1480 µM
- IC50: 661 µM

Compound: O=C1c2ccccc2C(=O)C2OC12 (stereo not drawn)
- EC50: > 20 µM
- IC50: 0.977 µM

Compound: COc1ccc(C[C@H](N)C(=O)N2C[C@@H](CO)C[C@@H](n3ccc(=O)[nH]c3=O)C2)cc1
- EC50: > 309 µM
- IC50: > 309 µM

Compound: COc1ccc(NS(=O)c2ccc(OC)cc2)cc1 (stereo not drawn)
- EC50: > 200 µM
- IC50: 15.8 µM

Compound: CCCCCCC1C=CCCN1 (stereo not drawn)
- outcome: inactive

Compound: Cc1ccc(C(=O)/C=C/c2cccc([N+](=O)[O-])c2)cc1
- EC50: > 37.2 µM
- IC50: > 37.2 µM

Compound: CC1=C(C(=O)CC(=O)C(=O)NC2C3CC4CC(C3)CC2C4)Sc2ccccc2N1 (stereo not drawn)
- EC50: > 9.12 µM
- IC50: > 9.12 µM

Compound: C=C1c2nc3ccccc3n2C=C(c2ccc(Cl)cc2)N1c1ccc(OC)cc1
- EC50: > 200 µM
- IC50: 18.6 µM

Compound: CN(C)[C@@H]1C(=O)C(C(N)=O)=C(O)[C@@]2(O)C(=O)C3=C(O)c4c(O)cccc4C[C@H]3C[C@@H]12
- EC50: > 200 µM
- IC50: 3.55 µM

Compound: CC(C)(c1cccs1)c1cscc1C(=O)O
- EC50: > 200 µM
- IC50: > 200 µM

Compound: CCC[CH2][Sn]([CH2]CCC)([O]C(=O)c1cc(F)ccc1F)[O]C(=O)c1cc(F)ccc1F
- EC50: > 13.2 µM
- IC50: 1 µM

Compound: O=C(/C=C/c1c(O)ccc2ccccc12)c1ccc([N+](=O)[O-])cc1
- EC50: 33.9 µM
- IC50: 58.9 µM

Compound: O=C(C[n+]1ccccc1)N=N/C(C(=O)Nc1c(Cl)c(O)c2ccccc2c1O)=C1/C(=O)Oc2cc(O)ccc2C1=O
- EC50: > 22.4 µM
- IC50: 12 µM

Compound: CCCCCCCCCCCC(=O)OCCOCCOCCOCc1ccccc1
- outcome: inactive

Compound: Nc1nc(NCCOCP(=O)(O)O)c(N)c(=O)[nH]1
- EC50: > 200 µM
- IC50: > 200 µM

Compound: CSC(Cc1ccc2c(c1)Sc1ccccc1O2)=[N+]1CCOCC1
- EC50: > 200 µM
- IC50: 44.7 µM

Compound: O=C(c1ccccc1)C1S(=O)(=O)OCCOS1(=O)=O
- EC50: > 5130 µM
- IC50: 3090 µM

Compound: CC(=O)O[C@@H]1[C@H]2O[C@H]2[C@H]2O[C@@]2(COC(=O)c2ccccc2)[C@H]1OC(C)=O
- EC50: > 200 µM
- IC50: 91.2 µM

Compound: O=C(O/N=C1/CCC/C1=C\c1ccccc1)c1ccc(Cl)c(Cl)c1
- outcome: inactive

Compound: CCC1(N)C(=O)OCc2c1cc1n(c2=O)Cc2cc3ccccc3nc2-1 (stereo not drawn)
- EC50: > 200 µM
- IC50: 0.813 µM

Compound: COc1cc2c(cc1O)C1COc3cc4c(cc3C1O2)CCC(C)(C)O4 (stereo not drawn)
- EC50: > 200 µM
- IC50: 11.5 µM

Compound: O=[N+]([O-])c1ccc(OCc2nc3ccccc3[nH]2)cc1
- EC50: > 200 µM
- IC50: 87.1 µM

Compound: C/C(CC(=O)Nc1ccccc1)=N\NC(N)=S
- EC50: > 1000 µM
- IC50: 170 µM

Compound: C/C(Cl)=N/OC(=O)Nc1ccc(S(N)(=O)=O)c(C)c1
- EC50: > 20 µM
- IC50: 8.71 µM

Compound: CSc1nc2c(=O)oc(-c3ccc(Cl)cc3)nc2s1
- EC50: > 200 µM
- IC50: 110 µM

Compound: CNCCSS(=O)(=O)CCNC
- EC50: 214 µM
- IC50: 457 µM

Compound: O=S(=O)(O)CO
- EC50: > 200 µM
- IC50: 151 µM

Compound: O=C(OCCN=c1c2ccccc2ccc2ccccc12)c1ccccc1
- EC50: > 200 µM
- IC50: 120 µM

Compound: O=S(=O)(O)c1ccc2c(N=NNc3ccc(NN=Nc4cccc5cc(S(=O)(=O)O)ccc45)cc3)cccc2c1
- EC50: > 759 µM
- IC50: 457 µM

Compound: Cn1c(=O)c2c(nc3n(Cc4ccccc4)c(=O)c(NCCBr)cn23)n(C)c1=O
- EC50: > 126 µM
- IC50: 49 µM

Compound: COc1ccc(NC(=O)CCc2cc(C(C)(C)C)n[nH]2)cc1
- EC50: > 832 µM
- IC50: > 832 µM

Compound: c1ccc2c(c1)N=c1ccccc1=P21c2ccccc2Nc2ccccc21
- EC50: > 2 µM
- IC50: 0.214 µM

Compound: CC1(C)CCC(C)(C)c2cc(NC(=O)c3ccc(C(=O)O)cc3)ccc21
- EC50: > 200 µM
- IC50: 95.5 µM

Compound: CCOC(CC1(O)C(=O)N(Cc2ccccc2)c2ccccc21)OCC (stereo not drawn)
- EC50: > 200 µM
- IC50: > 200 µM

Compound: Cc1nc(C)c(C(=O)NNC(=O)c2ccccc2)cc1C(=O)NNC(=O)c1ccccc1
- EC50: > 200 µM
- IC50: > 200 µM

Compound: CC(C)(C)NNC(=O)/C(=C/c1ccc(Oc2ccc(Cl)c(Cl)c2)cc1)NC(=O)c1ccccc1
- EC50: > 5.5 µM
- IC50: > 5.5 µM

Compound: CC1(C)CC(=O)C(=CN2C(=O)CNC2=S)C(=O)C1
- EC50: > 200 µM
- IC50: > 200 µM

Compound: C#CCCCCC#Cc1ccccc1C(=O)OC
- EC50: > 151 µM
- IC50: 28.8 µM

Compound: CC1=NCCC[N-]CC[N-]CCCN=C1C.[Ni+2].[O-][Cl+3]([O-])([O-])O
- EC50: > 200 µM
- IC50: > 200 µM

Compound: CS(=O)(=O)CCOC(=O)ON1C(=O)CCC1=O
- EC50: > 200 µM
- IC50: 26.9 µM

Compound: COc1cc(OC)c2nc3ccccc3c(NCCCN(C)C)c2c1[N+](=O)[O-]
- EC50: > 200 µM
- IC50: 20 µM

Compound: Cc1cc(C)c2ccc(N3CCNCC3)nc2n1
- EC50: > 174 µM
- IC50: 70.8 µM

Compound: C/C(=N\Nc1ccc2ccccc2n1)c1ccccc1O
- EC50: > 200 µM
- IC50: 6.46 µM

Compound: COc1ccc(/C=C2/C(=O)N(/C=C3\C(=O)Oc4ccccc4C3=O)C(=NC(C)=O)N2C)cc1OC
- EC50: > 200 µM
- IC50: 126 µM

Compound: COc1ccc(OC)c(/C=C(\C#N)c2ccc([N+](=O)[O-])cc2)c1
- EC50: > 200 µM
- IC50: > 200 µM

Compound: COc1ccc(CN2CC(=O)N3Cc4ccccc4CN3C(=O)C2)cc1
- EC50: > 200 µM
- IC50: 166 µM

Compound: CC1=NNC(=O)C1C1CC(c2c[nH]c3ccccc23)=NN=C1Cl (stereo not drawn)
- EC50: > 200 µM
- IC50: 93.3 µM

Compound: CCN(CC)C(C)C(=O)Nc1cccc(Cl)c1C (stereo not drawn)
- EC50: > 50.1 µM
- IC50: > 50.1 µM

Compound: Cc1cc(C)cc(Nc2cc(=O)[nH]c(=O)[nH]2)c1
- EC50: > 200 µM
- IC50: > 200 µM

Compound: O=C1NC(N2CCCCC2)=N/C1=C\c1ccco1
- EC50: > 200 µM
- IC50: > 200 µM

Compound: CCCCC/C=C\CCC/C=C\CCCCCCOP(=O)(O)OCCC=C(c1cc(Cl)c(O)c(C(=O)O)c1)c1cc(Cl)c(O)c(C(=O)O)c1
- EC50: > 126 µM
- IC50: 83.2 µM

Compound: C[Si](C)(C)/C(Br)=C\CCN1C(=O)CCC1=O
- outcome: inactive

Compound: CC(C)(C)C(=O)OCOP(=O)(OCCOCn1cnc2c(=O)[nH]c(N)nc21)OCOC(=O)C(C)(C)C
- outcome: inactive

Compound: CCC1=NC(C(F)(F)F)(C(F)(F)F)N=C(/N=C(/N)N(C)C(C(C)C)P(=O)(OC(C)C)OC(C)C)O1 (stereo not drawn)
- EC50: > 200 µM
- IC50: > 200 µM

Compound: CC1=NOC2(C1)/C(=N/O)CCC/C2=N\O (stereo not drawn)
- EC50: > 200 µM
- IC50: > 200 µM

Compound: O=C(NCCCCCCNC(=O)NC1OCC(O)C(O)C1O)NC1OCC(O)C(O)C1O (stereo not drawn)
- outcome: inactive

Compound: CC1=CC(=O)/C(=C/n2c(=S)[nH]c3ccccc32)C(=O)O1
- EC50: > 200 µM
- IC50: > 200 µM

Compound: O=C/C(=C(/Br)I)c1ccccc1
- EC50: > 200 µM
- IC50: 1.26 µM

Compound: CC(=O)OCN(C)c1nc(N(C)COC(C)=O)nc(N(C)COC(C)=O)n1
- EC50: > 50.1 µM
- IC50: > 50.1 µM

Compound: COc1ccc(N)c(N2C(=O)c3ccccc3C2=O)c1
- EC50: > 200 µM
- IC50: > 200 µM

Reference: PubChem BioAssay AID179 (DTP/NCI, 2004)
